Results from ChEMBL document CHEMBL4270566, “New aziridine-based inhibitors of cathepsin L-like cysteine proteases with selectivity for the Leishmania cysteine protease LmCPB2.8” (Eur J Med Chem, 2018).
Calls of active or inactive are those of the source. The calls are words filed in the database; no cut-off is given here.

What was measured:
Procathepsin L [1] = target: T1, Procathepsin L (Homo sapiens, UniProt P07711); test: Inhibition of human cathepsin-L using Z-Phe-Arg-AMC as substrate by fluorometric assay
Target sequence in this assay (P07711 whole entry): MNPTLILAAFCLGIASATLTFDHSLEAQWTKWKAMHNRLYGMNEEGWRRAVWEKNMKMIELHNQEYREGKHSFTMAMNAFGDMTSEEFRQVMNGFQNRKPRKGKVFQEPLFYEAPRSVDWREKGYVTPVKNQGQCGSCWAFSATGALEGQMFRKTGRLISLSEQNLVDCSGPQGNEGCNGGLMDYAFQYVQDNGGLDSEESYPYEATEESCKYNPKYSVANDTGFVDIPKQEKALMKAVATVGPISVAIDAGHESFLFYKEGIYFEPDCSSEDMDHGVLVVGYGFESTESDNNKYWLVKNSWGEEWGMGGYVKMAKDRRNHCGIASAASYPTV

Cathepsin B [2] = target: T2, Cathepsin B (Homo sapiens, UniProt P07858); test: Inhibition of human cathepsin-B using Z-Phe-Arg-AMC as substrate by fluorometric assay
Falcipain 2 = target: T3, Falcipain 2 (Plasmodium falciparum, UniProt Q9N6S8); test: Inhibition of Plasmodium falciparum falcipain 2 using Z-Phe-Arg-AMC as substrate by fluorometric assay
T3 sequence (Q9N6S8 whole entry): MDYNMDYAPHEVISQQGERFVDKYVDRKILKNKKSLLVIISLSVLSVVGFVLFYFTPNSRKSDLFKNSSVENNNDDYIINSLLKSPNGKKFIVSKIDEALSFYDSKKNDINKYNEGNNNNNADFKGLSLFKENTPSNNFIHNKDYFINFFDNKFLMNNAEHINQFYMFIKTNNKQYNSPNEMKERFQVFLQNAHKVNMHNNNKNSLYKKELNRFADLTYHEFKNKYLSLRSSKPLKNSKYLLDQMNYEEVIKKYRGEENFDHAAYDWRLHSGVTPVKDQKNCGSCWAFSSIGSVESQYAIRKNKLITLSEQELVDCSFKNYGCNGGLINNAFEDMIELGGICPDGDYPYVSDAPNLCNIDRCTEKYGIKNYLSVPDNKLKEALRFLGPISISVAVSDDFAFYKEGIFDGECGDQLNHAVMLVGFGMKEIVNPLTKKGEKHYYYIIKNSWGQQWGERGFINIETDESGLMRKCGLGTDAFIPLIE

Leishmania major [3] = test: Antileishmanial activity against Leishmania major promastigotes at 20 uM; type: functional, organism-based
Leishmania major [4] = test: Antileishmanial activity against Leishmania major promastigotes; type: functional, organism-based
Leishmania major [5] = test: Antileishmanial activity against luciferase-fused Leishmania major amastigotes infected in BMDM after 24 hrs by luminescence assay; type: functional, organism-based
J774 = test: Cytotoxicity against mouse J774 cells; type: cell-based
[6] = target: T4, Cathepsin B-like protease (Leishmania major, UniProt P90627); test: Inhibition of Leishmania major MHOM/IL/81/FE/BNI His6-tagged CPC expressed in Pichia pastoris using Cbz-Phe-Arg-AMC as substrate by fluorescence spectrometric method; conditions: read-out: Ki(app)
T4 sequence (P90627 whole entry): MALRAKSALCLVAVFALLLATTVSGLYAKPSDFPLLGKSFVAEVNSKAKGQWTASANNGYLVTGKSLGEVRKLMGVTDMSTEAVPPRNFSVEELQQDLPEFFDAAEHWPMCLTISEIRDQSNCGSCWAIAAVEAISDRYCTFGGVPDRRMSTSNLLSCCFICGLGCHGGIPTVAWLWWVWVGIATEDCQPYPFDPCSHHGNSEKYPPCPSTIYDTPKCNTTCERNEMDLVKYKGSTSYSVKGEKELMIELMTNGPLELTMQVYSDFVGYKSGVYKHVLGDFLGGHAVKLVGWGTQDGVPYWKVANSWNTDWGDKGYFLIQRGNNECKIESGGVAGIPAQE

[7] = Inhibition of Leishmania mexicana cathepsin L-like protease CPB2.8 using Z-Phe-Arg-AMC as substrate by fluorometric assay
Rhodesain = Rhodesain (Trypanosoma brucei rhodesiense, UniProt Q95PM0); test: Inhibition of Trypanosoma brucei rhodesiense rhodesain using Z-Phe-Arg-AMC as substrate by fluorometric assay
Sequence of Rhodesain (Q95PM0 whole entry): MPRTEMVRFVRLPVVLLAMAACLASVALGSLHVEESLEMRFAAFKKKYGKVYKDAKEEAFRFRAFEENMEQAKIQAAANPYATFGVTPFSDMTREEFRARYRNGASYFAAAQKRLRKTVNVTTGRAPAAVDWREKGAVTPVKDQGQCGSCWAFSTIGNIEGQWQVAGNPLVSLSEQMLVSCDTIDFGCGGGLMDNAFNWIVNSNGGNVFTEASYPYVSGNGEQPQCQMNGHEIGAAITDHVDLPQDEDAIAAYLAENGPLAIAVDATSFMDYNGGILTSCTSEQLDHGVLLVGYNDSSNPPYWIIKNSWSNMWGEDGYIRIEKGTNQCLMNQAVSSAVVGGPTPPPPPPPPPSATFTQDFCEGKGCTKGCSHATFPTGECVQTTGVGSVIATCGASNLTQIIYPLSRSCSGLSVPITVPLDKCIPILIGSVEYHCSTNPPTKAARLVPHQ

Procathepsin L [8] = target: T1, Procathepsin L; test: Inhibition of human cathepsin-L at 20 uM using Z-Phe-Arg-AMC as substrate by fluorometric assay relative to control
Target sequence in this assay (P07711 114-333 limits assumed): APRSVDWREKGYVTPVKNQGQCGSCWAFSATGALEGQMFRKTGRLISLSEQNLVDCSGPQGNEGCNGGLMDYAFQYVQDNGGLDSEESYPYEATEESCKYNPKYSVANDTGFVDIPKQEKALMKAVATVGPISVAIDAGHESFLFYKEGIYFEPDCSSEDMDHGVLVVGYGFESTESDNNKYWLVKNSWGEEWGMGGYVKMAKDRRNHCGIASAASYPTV

Cathepsin B [9] = target: T2, Cathepsin B; test: Inhibition of human cathepsin-B at 20 uM using Z-Phe-Arg-AMC as substrate by fluorometric assay relative to control
[10] = target: Cruzipain (Trypanosoma cruzi) (UniProt P25779); test: Inhibition of Trypanosoma cruzi cruzain at 20 uM using Z-Phe-Arg-AMC as substrate by fluorometric assay relative to control
Sequence of Cruzipain (Trypanosoma cruzi) (P25779 123-467 limits assumed): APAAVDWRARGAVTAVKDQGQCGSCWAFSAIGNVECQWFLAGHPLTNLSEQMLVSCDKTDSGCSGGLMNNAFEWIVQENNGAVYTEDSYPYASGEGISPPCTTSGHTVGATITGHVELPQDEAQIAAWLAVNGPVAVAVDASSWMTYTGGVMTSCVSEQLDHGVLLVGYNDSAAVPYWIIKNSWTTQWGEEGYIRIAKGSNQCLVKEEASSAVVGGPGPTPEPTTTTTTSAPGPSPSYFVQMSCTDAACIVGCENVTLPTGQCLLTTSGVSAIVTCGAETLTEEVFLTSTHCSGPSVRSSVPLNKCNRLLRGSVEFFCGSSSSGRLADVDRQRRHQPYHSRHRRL

[11] = target: T5, Falcipain 2 (Plasmodium falciparum) (UniProt Q9N6S8); test: Inhibition of Plasmodium falciparum falcipain 2 at 20 uM using Z-Phe-Arg-AMC as substrate by fluorometric assay relative to control
T5 sequence (whole entry): T3 sequence (Q9N6S8 whole entry)

Leishmania mexicana [12] = test: Inhibition of Leishmania mexicana cathepsin L-like protease CPB2.8 assessed as second order inactivation rate constant using Z-Phe-Arg-AMC as substrate by fluorometric assay
Cruzipain = Cruzipain (Trypanosoma cruzi, UniProt P25779); test: Inhibition of Trypanosoma cruzi cruzain using Z-Phe-Arg-AMC as substrate by fluorometric assay
Sequence of Cruzipain (P25779 whole entry): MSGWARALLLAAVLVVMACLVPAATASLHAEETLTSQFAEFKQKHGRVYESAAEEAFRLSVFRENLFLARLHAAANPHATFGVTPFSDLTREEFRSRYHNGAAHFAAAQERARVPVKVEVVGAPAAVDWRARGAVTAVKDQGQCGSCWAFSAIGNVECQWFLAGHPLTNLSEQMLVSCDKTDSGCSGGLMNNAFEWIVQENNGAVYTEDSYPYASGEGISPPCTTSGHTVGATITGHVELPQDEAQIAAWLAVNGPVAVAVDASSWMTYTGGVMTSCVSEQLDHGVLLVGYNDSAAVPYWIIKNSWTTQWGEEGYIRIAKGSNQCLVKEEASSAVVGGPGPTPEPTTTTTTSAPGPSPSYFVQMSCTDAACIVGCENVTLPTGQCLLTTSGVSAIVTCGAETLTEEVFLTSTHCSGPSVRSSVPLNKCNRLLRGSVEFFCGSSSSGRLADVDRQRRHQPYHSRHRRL

Leishmania mexicana [13] = test: Inhibition of Leishmania mexicana cathepsin L-like protease CPB2.8 at 20 uM using Z-Phe-Arg-AMC as substrate by fluorometric assay relative to control
[14] = target: Rhodesain (Trypanosoma brucei rhodesiense) (UniProt Q95PM0); test: Inhibition of Trypanosoma brucei rhodesiense rhodesain at 20 uM using Z-Phe-Arg-AMC as substrate by fluorometric assay relative to control
Sequence of Rhodesain (Trypanosoma brucei rhodesiense) (Q95PM0 1-450): as the sequence (Q95PM0 whole entry) above

[15] = target: Cruzipain (Trypanosoma cruzi) (UniProt P25779); test: Inhibition of Trypanosoma cruzi cruzain assessed as second order inactivation rate constant using Z-Phe-Arg-AMC as substrate by fluorometric assay
[16] = target: Rhodesain (Trypanosoma brucei rhodesiense) (UniProt Q95PM0); test: Inhibition of Trypanosoma brucei rhodesiense rhodesain assessed as second order inactivation rate constant using Z-Phe-Arg-AMC as substrate by fluorometric assay
[17] = target: T5, Falcipain 2 (Plasmodium falciparum); test: Inhibition of Plasmodium falciparum falcipain 2 assessed as second order inactivation rate constant using Z-Phe-Arg-AMC as substrate by fluorometric assay
Procathepsin L [18] = target: T1, Procathepsin L; test: Inhibition of human cathepsin-L assessed as second order inactivation rate constant using Z-Phe-Arg-AMC as substrate by fluorometric assay
Target sequence in this assay (P07711 114-333 limits assumed): as the sequence (P07711 114-333 limits assumed) above

| Compound | Ki (Procathepsin L [1]) [µM] | Ki (Falcipain 2) [nM] | Ki [7] [nM] | Ki (Rhodesain) [nM] | inhibition (Procathepsin L [8]) | inhibition (Cathepsin B [9]) | inhibition [10] | inhibition [11] | also measured |
| --- | --- | --- | --- | --- | --- | --- | --- | --- | --- |
| CC(C)C[C@H](NC(=O)OC(C)(C)C)C(=O)N1CCC[C@H]1C(=O)N1[C@@H](C(=O)OCc2ccccc2)[C@@H]1C(=O)OCc1ccccc1 | 0.4 | 400 |  |  |  |  |  |  | Ki (Cathepsin B [2]): 114 µM; Activity (Leishmania major [3]): inactive |
| CC(C)C[C@H](NC(=O)OC(C)(C)C)C(=O)N1CCC[C@@H]1C(=O)N1[C@@H](C(=O)OCc2ccccc2)[C@@H]1C(=O)OCc1ccccc1 |  |  | 3800 | 1700 | inactive | inactive | inactive | inactive | EC50 (Leishmania major [4]): 37.4 µM; EC50 (Leishmania major [5]): 2300 nM; Activity (J774): > 250 µM; Ki [6]: 18.2 µM |
| CC(C)C[C@H](NC(=O)OC(C)(C)C)C(=O)N1CCC[C@@H]1C(=O)N1C(C(=O)O)C1C(=O)OCC1CCCCC1 (mixture of isomers) | 7.3 | 450 | 1790 | 120 | > 50% | inactive | > 50% | > 50% | K (Leishmania mexicana [12]): 53600 M⁻¹ min⁻¹; Ki (Cruzipain): 710 nM; inhibition (Leishmania mexicana [13]): > 50%; inhibition [14]: > 50%; K [15]: 323000 M⁻¹ min⁻¹; K [16]: 494000 M⁻¹ min⁻¹; K [17]: 76800 M⁻¹ min⁻¹; K (Procathepsin L [18]): 13900 M⁻¹ min⁻¹ |
